According to patent US20240228468A1, “N-(6-((OCTAHYDROCYCLOPENTA[C]PYRROL-5-YI)AMINO)PYRIDAZIN-3-YL)PHENYL)CARBOXAMIDE AND (6- ((OCTAHYDROCYCLOPENTA[C]PYRROL-5-YL)AMINO)PYRIDAZIN-3-YL)BENZAMIDE DERIVATIVES AS MACHR M4 ANTAGONISTS FOR THE TREATMENT OF NEURODEGENERATIVE DISORDERS” (Vanderbilt University, priority 2021, published 2024):
Where two headings read alike, the source gives them in different places.

Molecular target: T1, Human M4 (Homo sapiens, UniProt P08173)
T1 construct: expressed in transfected cells; host or cells: CHO-K1 (ATCC), co-transfected with chimeric G protein Gqi5
T1 sequence (P08173 1-479): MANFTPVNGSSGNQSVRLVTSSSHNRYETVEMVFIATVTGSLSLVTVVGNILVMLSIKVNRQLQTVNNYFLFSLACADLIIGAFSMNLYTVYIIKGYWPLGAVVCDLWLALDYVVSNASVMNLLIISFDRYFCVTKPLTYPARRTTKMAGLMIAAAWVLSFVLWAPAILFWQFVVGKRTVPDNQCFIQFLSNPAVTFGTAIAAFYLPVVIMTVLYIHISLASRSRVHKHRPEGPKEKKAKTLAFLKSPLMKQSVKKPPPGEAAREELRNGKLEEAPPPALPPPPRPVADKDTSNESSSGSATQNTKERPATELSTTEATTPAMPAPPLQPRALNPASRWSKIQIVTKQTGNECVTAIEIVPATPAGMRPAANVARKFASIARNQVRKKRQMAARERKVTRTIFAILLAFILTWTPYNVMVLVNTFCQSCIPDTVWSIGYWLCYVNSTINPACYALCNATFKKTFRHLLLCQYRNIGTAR
Test: mAChR M4 cell-based functional assay (calcium flux, antagonism of EC80 acetylcholine response)
Details: for IC50: concentration-dependent decrease of the response elicited by an EC80 concentration of acetylcholine
Method: Human or rat M4 cDNA, along with the chimeric G protein Gqi5, were transfected into Chinese hamster ovary (CHO-K1) cells purchased from the American Type Culture Collection using Lipofectamine2000. M4/Gqi5/CHO cells were grown in Ham's F-12 medium containing 10% heat-inactivated fetal bovine serum (FBS), 20 mM HEPES, 500 μg/mL G418 sulfate, and 200 μg/mL Hygromycin B.
For high throughput measurement of agonist-evoked increases in intracellular calcium, CHO-K1 cells stably expressing muscarinic receptors were plated in growth medium lacking G418 and hygromycin at 15,000 cells/20 μL/well in Greiner 384-well black-walled, tissue culture (TC)-treated, clear-bottom plates (VWR). Cells were incubated overnight at 37° C. and 5% CO2. The next day, cells were washed using an ELX 405 (BioTek) with assay buffer; the final volume was then aspirated to 20 μL. Next, 20 μL of a 2.3 μM stock of Fluo-4/acetoxymethyl ester (Invitrogen, Carlsbad, CA), prepared as a 2.3 mM stock in DMSO and mixed in a 1:1 ratio with 10% (w/v) Pluronic F-127 and diluted in assay buffer, was added to the wells and the cell plates were incubated for 50 min at 37° C. and 5% CO2. Dye was removed by washing with the ELX 405 and the final volume was aspirated to 20 μL. Compound master plates were formatted in a 10 point concentration-response curve (CRC) format (1:3 dilutions) in 100% DMSO with a starting concentration of 10 or 1 mM using a BRAVO liquid handler (Agilent). Test compound CRCs were then transferred to daughter plates (240 nL) using the Echo acoustic plate reformatter (Labcyte, Sunnyvale, CA) and then diluted into assay buffer (40 μL) to a 2× stock using a Thermo Fisher Combi (Thermo Fisher Scientific, Waltham, MA).
Calcium flux was measured using the Functional Drug Screening System (FDSS) 6000 or 7000 (Hamamatsu Corporation, Tokyo, Japan) as an increase in the fluorescent static ratio. Compounds were applied to cells (20 μL, 2×) using the automated system of the FDSS at 2 seconds into the protocol and the data were collected at 1 Hz. At 143 s, 10 μL of an EC20 concentration of the muscarinic receptor agonist acetylcholine was added (5×), followed by the addition of 12 μL of an EC80 concentration of acetylcholine at the 268 s time point (5×). Agonist activity was analyzed as a concentration-dependent increase in calcium mobilization upon compound addition. Positive allosteric modulator activity was analyzed as a concentration-dependent increase in the EC20 acetylcholine response. Antagonist activity was analyzed as a concentration-dependent decrease in the EC80 acetylcholine response; for the purposes of the tables herein, an IC50 (inhibitory concentration 50) was calculated as a concentration-dependent decrease of the response elicited by an EC80 concentration of acetylcholine. Concentration-response curves were generated using a four-parameter logistical equation in XLFit curve fitting software (IDBS, Bridgewater, NJ) for Excel (Microsoft, Redmond, WA) or Prism (GraphPad Software, Inc., San Diego, CA) or the Dotmatics software platform (Dotmatics, Bishop's Stortford, UK).
Compounds were synthesized as described above. Activity (IC50 and Emin) was determined in the mAChR M4 cell-based functional assay as described above and the data are shown in Table 2.

[1] = M4/Gqi5/CHO-K1 cells, % ACh maximum at 30 μM
[2] = M4/Gqi5/CHO-K1 cells, % ACh maximum at 30 μM, read-out: Human M4 Emin (% ACh maximum at 30 μM)

Structure (SMILES)	Human M4 Emin (% ACh maximum at 30 μM) [1]	IC50 (M4/Gqi5/CHO-K1 cells)	remaining activity at 30 µM [2]	remaining activity at 30 µM (CHO-K1, read-out: Human M4 Emin (% ACh maximum at 30 μM))
CC(=O)Nc1ccc(-c2ccc(N[C@H]3C[C@@H]4CN(Cc5ccc(F)cc5)C[C@@H]4C3)nn2)cc1 [Compound A3, N-(4-(6-(((3aR,5s,6aS)-2-(4-fluorobenzyl)octahydrocyclopenta[c]pyrrol-5-yl)amino)pyridazin-3-yl)phenyl)acetamide]		10 nM	2%	
[2H]C([2H])([2H])C(=O)Nc1ccccc1-c1ccc(N[C@H]2C[C@@H]3CN(C([2H])([2H])C4CCOCC4)C[C@@H]3C2)nn1 [Compound B4, N-(2-(6-(((3aR,5s,6aS)-2-((tetrahydro-2H-pyran-4-yl)methyl-d2)octahydrocyclopenta [c]pyrrol-5-yl)amino)pyridazin-3-yl)phenyl) acetamide-2,2,2-d3]	4%	120 nM		
[2H]C([2H])(C1CCOCC1)N1C[C@H]2C[C@H](Nc3ccc(-c4ccc(F)c(C(=O)NC)c4)nn3)C[C@H]2C1 [Compound A73, 2-fluoro-N-methyl-5-(6-(((3aR,5s,6aS)-2-((tetrahydro-2H-pyran-4-yl)methyl-d2)octahydrocyclopenta[c]pyrrol-5-yl)amino)pyridazin-3-yl)benzamide]		310 nM	7%	
CC1(O)CN(C(=O)c2ccc(-c3ccc(N[C@H]4C[C@@H]5CN(CC6CCOCC6)C[C@@H]5C4)nn3)cc2)C1 [Compound A23, (3-hydroxy-3-methylazetidin-1-yl)(4-(6-(((3aR,5s,6aS)-2-((tetrahydro-2H-pyran-4-yl)methyl)octahydrocyclopenta[c]pyrrol-5-yl)amino)pyridazin-3-yl)phenyl)methanone]		15 nM	3%	
[2H]C([2H])(C1CCOCC1)N1C[C@H]2C[C@H](Nc3ccc(-c4cccc(C(=O)NC)c4)nn3)C[C@H]2C1 (single isomer, unassigned) [Compound A42]		400 nM		14%
[2H]C([2H])(C1CCOCC1)N1C[C@H]2C[C@H](Nc3ccc(-c4cccc(NC(C)=O)c4)nn3)C[C@H]2C1 [Compound A31, N-(3-(6-(((3aR,5s,6aS)-2-((tetrahydro-2H-pyran-4-yl)methyl-d2)octahydrocyclopenta[c]pyrrol-5-yl)amino)pyridazin-3-yl)phenyl)acetamide]		11 nM	3%	

Continued, in another order:

Human M4 Emin (% ACh maximum at 30 μM) [1]	IC50 (M4/Gqi5/CHO-K1 cells)	remaining activity at 30 µM [2]	Structure (SMILES)	remaining activity at 30 µM (CHO-K1, read-out: Human M4 Emin (% ACh maximum at 30 μM))
3%	58 nM		[2H]C([2H])(C1CCOCC1)N1C[C@H]2C[C@H](Nc3ccc(-c4ccccc4NC(C)=O)nn3)C[C@H]2C1 [Compound B2, N-(2-(6-(((3aR,5s,6aS)-2-((tetrahydro-2H-pyran-4-yl)methyl-d2)octahydrocyclopenta [c]pyrrol-5-yl)amino)pyridazin-3-yl)phenyl)acetamide]	
	5.1 nM	4%	NC(=O)c1ccc(-c2ccc(N[C@H]3C[C@@H]4CN(CC5CCOCC5)C[C@@H]4C3)nn2)c(F)c1 [Compound A36, 3-fluoro-4-(6-(((3aR,5s,6aS)-2-((tetrahydro-2H-pyran-4-yl)methyl)octahydrocyclopenta[c]pyrrol-5-yl)amino)pyridazin-3-yl)benzamide]	
	0.9 nM	4%	[2H]C([2H])([C@H]1CCCCO1)N1C[C@H]2C[C@H](Nc3ccc(-c4cc(F)cc(C(=O)NC)c4)nn3)C[C@H]2C1 [Compound A87, 3-fluoro-N-methyl-5-(6-(((3aR,5s,6aS)-2-(((R)-tetrahydro-2H-pyran-2-yl)methyl-d2)octahydrocyclopenta[c]pyrrol-5-yl)amino)pyridazin-3-yl)benzamide]	
	0.19 nM	3%	CC(=O)Nc1ccc(-c2ccc(N[C@H]3C[C@@H]4CN(Cc5ccc6c(c5)OCO6)C[C@@H]4C3)nn2)cc1 [Compound A4, N-(4-(6-(((3aR,5s,6aS)-2-(benzo[d][1,3]dioxol-5-ylmethyl)octahydrocyclopenta[c]pyrrol-5-yl)amino)pyridazin-3-yl)phenyl)acetamide]	
